Assays:
[1] = Solubility of compound 1 in water; type: physicochemical
[2] = test system: production of interleukin 1β; conditions: disclosed in JP Laid-Open No. 2000-198776; cited from earlier work

**Q.** For CSc1ccc(-c2nn(Cc3ccccc3)c(=O)cc2-c2ccc(Cl)cc2)cc1 [compound 1, 2-benzyl-5-(4-chlorophenyl)-6-[4-(methylthio)phenyl]-2H-pyridazin-3-one], which “solubility in water (in words)” value [1] is on record?
**A.** Its value is “exceptionally poor solubility in water”.

**Q.** And the “effect for suppressing production of interleukin 1β (in words)” value [2]?
**A.** Its value is “excellent effect”.

Source: patent US6753330B2, “Solid dispersion composition” (Kowa Co., Ltd., priority 2002, dated 2004)
